Assay results published in US5216001A, “Indole derivatives” (H. Lunbeck A/S, priority 1990, dated 1993).
Like-named read-outs stand apart in the source and are kept apart here.

Assays:
5-HT2 = target: T1, 5-HT2 (Rattus norvegicus, UniProt P14842); experiment: quipazine inhibition (quipazine-induced head twitches in rats); assay type: in vivo
T1 construct: Four rats, male Wistar (Mol:Wist) SPF rats weighing 170-240 g; from tissue; host or cells: living male Wistar (Mol:Wist) SPF rats (in vivo, endogenous receptor)
Procedure: Quipazine is a 5-HT2 agonist, which induces head twitches in rats. The test is a test for 5-HT2 -antagonistic effect testing the ability to inhibit head twitches. The method and test results for some reference substances are published by Arnt et al. (Drug Development Research, 16, 59-70, 1989).
Test substance is injected s.c. 2 hrs before or p.o. 24 hrs before quipazine administration (6.8 mg/kg, s.c., dimaleate). Four rats, male Wistar (Mol:Wist) SPF rats weighing 170-240 g, are used at each dose level. A control group is included each test day. By repeated testing (2, 24 hrs) the control group is the same, however. After quipazine administration the rats are individually placed in the observation cages and head twitches are counted in an observation period of 30-40 min. after injection of quipazine.
Total number of head twitches in each group is calculated and the result for each dose is expressed as per cent of the response in the control group. ED50 values are calculated by log-probit analysis. The test must be repeated if the average number of head twitches is lower than 9 in the control group.

DA D-2 = target: T2, DA D-2 (Rattus norvegicus, UniProt P61169); experiment: antagonism of pergolide-induced circling behaviour in rats with unilateral 6-OHDA lesions; assay type: in vivo; settings: sc
T2 construct: Male Wistar rats (Mol:Wist) weighing about 200 g at the time of operation are used; from tissue; host or cells: living male Wistar (Mol:Wist) rats with unilateral 6-OHDA lesions (in vivo, endogenous receptor)
Procedure: ANTAGONISM OF PERGOLIDE-INDUCED CIRCLING BEHAVIOUR IN RATS WITH UNILATERAL 6-OHDA LESIONS
Dopamine (DA) D-2 agonists induce contralateral circling behaviour in rats with 6-OHDA lesions. Pergolide-induced circling is antagonized by DA D-2 antagonists.
Male Wistar rats (Mol:Wist) weighing about 200 g at the time of operation are used. Unilateral lesions are made in pentobarbital anaesthetized rats by injection of 6-OHDA. HCl 9.7 μg/μl (equivalent to 8 μg free base) per 4 min. into the rostral tip of the substantia nigra. The saline solution contains ascorbic acid 0.2 mg/ml, is bubbled with N2 and is kept ice-cold. The experiments are done when stable contralateral circling responses to pergolide (0.05 μmol/kg, s.c.) are obtained. The circling response is measured in rotometer bowls. Only rats showing more than 400 complete turns in 2 hrs control session are used. Dose-response curves are obtained by alternating test and control sessions on a weekly basis. The antagonists are injected s.c. 2 hrs before the agonist. The effect of individual doses of test drugs is calculated as per cent of the mean effect of control sessions one week before and one week after the test session for each rat. ED50 values are calculated by log-probit analysis. Four to eight rats are used at each dosage.

dopamine D-2 receptors = target: T3, dopamine D-2 receptors (Rattus norvegicus, UniProt P61169); experiment: inhibition of 3H-spiperone binding to dopamine D-2 receptors in rat corpus striatum in vitro; settings: 3H-spiperone 0.5 nM, rat corpus striatum membranes, in vitro; read-out: Binding IC50, 3H Spi.
T3 construct: striatal tissue is dissected and weighed; from tissue; host or cells: corpus striatum membranes of male Wistar rats
Outline: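 Rat striatal membranes from male Wistar rats in 50 mM K-phosphate pH 7.4 incubated 10 min at 37 °C with 0.5 nM ³H-spiperone and five drug concentrations over 3 decades. Bound radioactivity collected by filtration and counted by scintillation; nonspecific binding defined with 10 μM 6,7-ADTN.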

[1] = po, 24 h, read-out: Quipazine inhibition ED50, 24h (po)
[2] = sc, 2 h, read-out: Quipazine inhibition ED50, 2h (sc)
[3] = read-out: Pergolide rot. inhibition ED50, 2h (sc), 6-OHDA lesions, s.c., 2 h before pergolide

T1 sequence (P14842 whole entry): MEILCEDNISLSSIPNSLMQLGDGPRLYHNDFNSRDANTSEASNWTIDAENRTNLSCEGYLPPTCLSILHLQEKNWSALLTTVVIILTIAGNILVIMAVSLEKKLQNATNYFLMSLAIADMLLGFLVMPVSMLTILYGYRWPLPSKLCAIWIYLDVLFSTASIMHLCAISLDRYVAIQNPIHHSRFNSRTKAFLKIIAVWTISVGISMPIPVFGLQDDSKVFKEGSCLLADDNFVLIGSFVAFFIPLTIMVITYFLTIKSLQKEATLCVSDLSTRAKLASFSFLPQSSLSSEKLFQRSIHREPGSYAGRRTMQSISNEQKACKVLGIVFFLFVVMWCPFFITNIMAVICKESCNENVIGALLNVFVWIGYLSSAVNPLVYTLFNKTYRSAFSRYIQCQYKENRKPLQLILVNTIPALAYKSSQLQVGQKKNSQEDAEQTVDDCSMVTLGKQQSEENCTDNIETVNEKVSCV
T2 sequence (P61169 whole entry): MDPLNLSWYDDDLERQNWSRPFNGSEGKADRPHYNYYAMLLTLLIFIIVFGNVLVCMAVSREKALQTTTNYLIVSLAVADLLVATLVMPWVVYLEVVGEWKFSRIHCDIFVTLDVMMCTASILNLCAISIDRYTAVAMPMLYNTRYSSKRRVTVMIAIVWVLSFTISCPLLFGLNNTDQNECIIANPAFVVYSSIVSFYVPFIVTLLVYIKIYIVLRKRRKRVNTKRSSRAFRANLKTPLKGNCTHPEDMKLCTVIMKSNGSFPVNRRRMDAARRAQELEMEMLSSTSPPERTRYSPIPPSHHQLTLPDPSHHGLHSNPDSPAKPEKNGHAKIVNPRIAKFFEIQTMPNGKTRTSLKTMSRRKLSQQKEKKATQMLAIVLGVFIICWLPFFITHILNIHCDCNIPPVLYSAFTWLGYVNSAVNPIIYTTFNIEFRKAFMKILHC
T3 sequence (P61169 whole entry): as above

SMILES | ED50 (5-HT2; [1]) [µmol/kg] | ED50 (5-HT2; [2]) [µmol/kg] | ED50 (DA D-2; 2 h, read-out: Pergolide rot. inhibition ED50, 2h (sc)) [µmol/kg] | IC50 (dopamine D-2 receptors) [nM] | ED50 (DA D-2; [3]) [µmol/kg] | Quipazine inhibition ED50, 2h (sc) (5-HT2; s.c., 2 h before quipazine) [µmol/kg]
CC(C)N1CCN(CCN2CCC(c3cn(-c4ccc(F)cc4)c4cc(Cl)ccc34)CC2)C1=O [Compound 4a, 6-chloro-1-(4-fluorophenyl)-3-[1-[2-[3-(2-propyl)-2-imidazolidinon-1-yl]ethyl]-4-piperidyl]-1H-indole] | 0.06 | 0.11 | > 17 | 130 |  | 
Cc1ccc2c(C3CCN(CCN4CCNC4=O)CC3)cn(-c3ccc(F)cc3)c2c1 [Compound 4g, 1-(4-fluorophenyl)-3-[1-[2-(2-imidazolidinon-1-yl)ethyl]-4-piperidyl]-6-methyl-1H-indole] | 0.04 | 0.02 |  | 270 | > 24 | 
Cc1ccc2c(C3CCN(CCN4CCN(C(C)C)C4=O)CC3)cn(-c3ccc(F)cc3)c2c1 [Compound 5a, 1-(4-fluorophenyl)-6-methyl-3-[1-[2-[3-(2-propyl)-2-imidazolidinon-1-yl]ethyl]-4-piperidyl]-1H-indole] | 0.11 | 0.04 |  | 190 | > 18 | 
OCCN1CCN(c2cn(-c3ccc(F)cc3)c3ccc(C(F)(F)F)cc23)CC1 [Lu 21-152, 1-(4-fluorophenyl)-3-[4-(2-hydroxyethyl)-1-piperazinyl]-5-trifluoromethyl-1H-indole, reference compound] |  |  |  | 2.6 | 0.02 | 0.02
